Reference: patent US8604054B2, “Triglyceride-lowering agent and hyperinsulinism-ameliorating agent” (Kowa Co., Ltd., priority 2006, dated 2013)

Columns and labels:
[1] = fructose-loaded rats, oral once a day for 21 days, pitavastatin 10 mg/kg, amlodipine 15 mg/kg; for plasma insulin level compared with the control group (FIG. 2): Dunnett's test, combination p<0.05
[2] = fructose-loaded rats, oral once a day for 21 days, pitavastatin 10 mg/kg, amlodipine 15 mg/kg; for plasma triglyceride level compared with the control group (FIG. 1): Dunnett's test, combination p<0.01
[3] = blood 22 hours after final administration

SMILES	plasma insulin level compared with the control group (FIG. 2) [1]	plasma triglyceride level compared with the control group (FIG. 1) [2]	relative plasma insulin level (based on the control group) [1, 3]	relative plasma triglyceride level (based on the control group) [2, 3]
CCOC(=O)C1=C(COCCN)NC(C)=C(C(=O)OC)C1c1ccccc1Cl (stereo not drawn) [amlodipine, amlodipine besylate]	not significantly changed as compared with the control group	almost equivalent to those of the control group		
O=C([O-])C[C@H](O)C[C@H](O)/C=C/c1c(C2CC2)nc2ccccc2c1-c1ccc(F)cc1.O=C([O-])C[C@H](O)C[C@H](O)/C=C/c1c(C2CC2)nc2ccccc2c1-c1ccc(F)cc1.[Ca+2] [pitavastatin, Pitavastatin calcium]	not significantly changed as compared with the control group	almost equivalent to those of the control group	0.971	0.966
